Experiments:
Assay type in all cases: in vivo
Corn seeds = test: Efficacy on corn seeds in Mississippi (emergence and yield)
Rhizoctonia = test: Efficacy on corn seed in Ohio, soil inoculated with Rhizoctonia
Protocol: Corn seeds were treated with 1 fluid ounce per one hundred weight (fl oz/cwt) of the Formulations of Examples 1 and 4 prior to being planted in Ohio. Untreated seeds were planted to assess the disease impact in stand establishment. Besides the control, commercially available and known fungicides were applied to determine the effectiveness of formulations of the present invention.
At planting, the soil was inoculated with a fungus of the genus Rhizoctonia, a common corn plant pathogen that causes rot disease, to assess field performance and seedling protection of the above formulas.
“Plants per acre” was determined to establish stand density. Stand Density of Ohio Corn Plants after Seed Treatment.”

Fusarium = test: Efficacy on corn seed in Illinois, soil inoculated with Fusarium; details: for Plants per acre 14DAP / Plants per acre 28DAP: Fusarium-inoculated soil; for Plants per acre 14DAP: 14 days after planting; for Plants per acre 28DAP: 28 days after planting; for % disease: number of plants with Fusarium infection
Protocol: Corn seeds were treated with 1 fluid ounce per one hundred weight (fl oz/cwt) or 65 mls/100 kg seed of the Formulations of Examples 1 and 4 prior to being planted in Illinois. Untreated seeds (“UTC”) were planted to assess the disease impact in stand establishment. Besides the control, commercially available and known fungicides were applied to determine the effectiveness of formulations of the present invention. Maxim® XL (Maxim is a registered trademark of Syngenta) is a fungicide containing 21% fludioxonil and 8.4% mefenoxam in a proprietary formulation. Apron XL® (Apron XL is a registered trademark of Syngenta) is fungicide containing 33.3% of mefenoxam in a proprietary formulation. Metalaxyl was applied in a 30.1% formulation and metconazole was applied in an approximately 40% dispersion with approximately 4% glycerine and other inert ingredients.
At planting, the soil was inoculated with a fungus of the genus Fusarium, a common corn plant pathogen that causes stalk rot disease, to assess field performance and seedling protection of the above formulas.
“Plants per acre” was determined to establish stand density. “% disease” was calculated by observing number of plants with Fusarium infection. The “height (cm) on roots” was determined. Stand Density and % Disease of Illinois Corn Plants after Seed Treatment.”

COCC(=O)N(c1c(C)cccc1C)C(C)C(=O)OC (centres unmarked) [Metalaxyl, metalaxyl]
Yield (bu/A) (Corn seeds): 154 bu/A
Yield (kg/hectare) (Corn seeds): 9662.3 kg/hectare
% Emergence 20DAP (Corn seeds): 91.5%
% Emergence 35DAP (Corn seeds): 83.3%
Plants per acre 14DAP (Rhizoctonia): 22400 plants per acre
Plants per acre 28DAP (Rhizoctonia): 28700 plants per acre
Height (cm) on roots (Fusarium): 61.0 cm
Plants per acre 14DAP (Fusarium): 25352 plants per acre
Plants per acre 28DAP (Fusarium): 26049 plants per acre
% disease (Fusarium): 18.0%

CC1(C)CCC(Cc2ccc(Cl)cc2)C1(O)Cn1cncn1 (centres unmarked) [Metconazole, metconazole]
Yield (bu/A) (Corn seeds): 155.5 bu/A
Yield (kg/hectare) (Corn seeds): 9756.4 kg/hectare
% Emergence 20DAP (Corn seeds): 80.8%
% Emergence 35DAP (Corn seeds): 84.8%
Plants per acre 14DAP (Rhizoctonia): 28875 plants per acre
Plants per acre 28DAP (Rhizoctonia): 28700 plants per acre
Height (cm) on roots (Fusarium): 57.3 cm
Plants per acre 14DAP (Fusarium): 28401 plants per acre
Plants per acre 28DAP (Fusarium): 29011 plants per acre
% disease (Fusarium): 37.6%
